Results from ChEMBL document CHEMBL3352603, “Synthesis and preliminary investigations into novel 1,2,3-triazole-derived androgen receptor antagonists inspired by bicalutamide” (Bioorg Med Chem Lett, 2014).

What was measured:
[1] = Growth inhibition of human PC3 cells; format: functional, cell-based; conditions: PC-3
LNCaP = assay: Growth inhibition of human LNCAP cells; format: functional, cell-based

With `CC(O)(CS(=O)(=O)c1ccc(F)cc1)c1cn(-c2ccc(C(=O)O)cc2)nn1` (racemic) the IC50 [1] was over 300 µM and the IC50 (LNCaP) was over 300 µM.
`CC(O)(CS(=O)(=O)c1ccc(F)cc1)C(=O)Nc1ccc(C#N)c(C(F)(F)F)c1` (centres undefined) [BICALUTAMIDE] gave an IC50 [1] of 58 µM and an IC50 (LNCaP) of 30 µM.
Molecule `CC(O)(CS(=O)(=O)c1ccc(F)cc1)c1cn(-c2ccc(C#N)c(C(F)(F)F)c2)nn1` (racemic) has an IC50 [1] of over 300 µM and an IC50 (LNCaP) of 45 µM.
Work on `CCOC(=O)c1ccc(-n2cc(C(C)(O)CS(=O)(=O)c3ccc(F)cc3)nn2)cc1` (racemic) yielded an IC50 [1] of over 300 µM and an IC50 (LNCaP) of over 300 µM.
`CC(O)(CS(=O)(=O)c1ccccc1)c1cn(-c2ccc([N+](=O)[O-])c(C(F)(F)F)c2)nn1` (racemic) showed an IC50 [1] of 29 µM and an IC50 (LNCaP) of 34 µM.
`CC(O)(CS(=O)(=O)c1ccccc1)c1cn(-c2ccc(C#N)c(C(F)(F)F)c2)nn1` (racemic) gave an IC50 [1] of 114 µM and an IC50 (LNCaP) of 151 µM.
With `CC(O)(CS(=O)(=O)c1ccc(F)cc1)c1cn(-c2ccc([N+](=O)[O-])c(C(F)(F)F)c2)nn1` (racemic) the IC50 [1] was over 300 µM and the IC50 (LNCaP) was 36 µM.
